Several values for one entry are separate records, joined by “and”; a condition that tells them apart may be missing. Equal entries are not always repeated. Where two headings read alike, the source gives them in different places. Marks after values point to notes of the source that are not given here.
Columns and labels:
[1] = tested on: multiple cancer cell lines; test: Pro-apoptotic activity in multiple cancer cell lines; type: cell-based
[2] = tested on: P388 murine leukemia cell line; test: 72 hour cytotoxicity, ATP-Lite cell viability; type: cell-based; details: Mus musculus, P388, Lymphoma, read-out: 72 Hour Cytotoxicity (IC50, nM ± SD)
Experimental: (§1) A P388 murine leukemia cell line was obtained from NCI, Frederick, Md. P388 cells were cultured in RPMI-1640 supplemented with 10% fetal bovine serum, 2 mM Glutamax, 1 mM sodium pyruvate, 0.1 mM non-essential amino acids and 10 mM HEPES. Cells were grown at 37° C. in a humidified 5% CO2 atmosphere. Exponentially growing P388 cells were plated at 5,000 cells/well in a 96-well flat-bottomed microtiter plate (Corning, Costar #3595, Lowell, Mass.). Twenty-four hours later, test compound was added to cells at final concentrations of 100 nM, 33.3 nM, 11.1 nM, 3.7 nM, 1.23 nM, 0.4 nM and 0.13 nM. Cellular viability was determined 72 hours later by measuring intracellular ATP with ATP-Lite assay system. The effect of compounds on cell viability was calculated by comparing the ATP levels of cells exposed to test compound with those of cells exposed to DMSO. A semi-log plot of relative ATP levels versus compound concentration was used to calculate the compound concentration required to inhibit growth by 50% (IC50). Data was analyzed by Prism software (GraphPad; San Diego, Calif.) by fitting it to a sigmoidal dose response curve.

[3] = Pharmacokinetic study in mice, plasma; type: in vivo
Experimental: Animals were dosed with approximately 2.5 mg/kg i.v. in the tail vein or 5, 10, 30, or 60 mg/kg p.o. in fed and 60 mg/kg p.o. in a fasted state. Blood samples and whole brains were collected from five mice at each of the […] collection time points (approximately 0.05, 0.25, 1.0, 2.0, 4.0, 8.0, 12.0 and 24.0 hours) after administration of the dose. Plasma was collected from blood samples, and whole brain sample were homoginized. Both tissues were analyzed for the concentration of Compound 1. Pharmacokinetic parameters were estimated by non-compartmental analysis using WinNonlin.

[4] = Pharmacokinetic study in a primate, plasma; type: in vivo, cynomolgus monkey; details: for Compound 1 Plasma Concentration: cynomolgus monkey, oral 20 mg/kg
Experimental: A single non-naïve male cynomolgus monkey was assigned to this study. […] Compound 1 was administered once orally via a gavage tube. The gavage tube was rinsed with water and removed. Blood was removed through the femoral artery/vein into a tube containing K3EDTA. The samples were centrifuged and the resulting plasma was separated and stored at approximately −70° C. until shipment to the analysis site. At the analysis site, the samples were stored at −20° C. until the day of analysis.
Plasma samples were analyzed for Compound 1 concentration using a LC-MS/MS method. The range of quantitation was 5-5000 ng/mL and utilized a 0.1 mL plasma sample volume. Concentration-time curves were constructed using WinNonlin (version 5.1.1).

MCF-7/MX (BCRP-1) = test: Multidrug resistant cell assay, cytotoxicity; type: cell-based; details: MCF7/MX, 72 h, read-out: Various MDR Cell Line Cytotoxicity IC50
MCF-7 = test: Multidrug resistant cell assay, cytotoxicity; type: cell-based; details: Homo sapiens, MCF7, 72 h, read-out: Various MDR Cell Line Cytotoxicity IC50
A549 = test: 72 hour cytotoxicity, ATP-Lite cell viability; type: cell-based; details: Homo sapiens, A549, Lung, read-out: 72 Hour Cytotoxicity (IC50, nM ± SD)
Experimental: as §1
(§2) A similar procedure was followed with six other cell lines and the results are shown in Table 1: HT-29, HCT-116, A549, OVCAR-3, MIAPaCa-2, and B16F1.

OVCAR-3 = test: 72 hour cytotoxicity, ATP-Lite cell viability; type: cell-based; details: Homo sapiens, OVCAR-3, Ovarian, read-out: 72 Hour Cytotoxicity (IC50, nM ± SD)
Experimental: as §1, §2

HT-29 = test: 72 hour cytotoxicity, ATP-Lite cell viability; type: cell-based; details: Homo sapiens, HT-29, Colorectal, read-out: 72 Hour Cytotoxicity (IC50, nM ± SD)
Experimental: as §1, §2

HCT-116 = test: 72 hour cytotoxicity, ATP-Lite cell viability; type: cell-based; details: Homo sapiens, HCT-116, Colorectal Carcinoma, read-out: 72 Hour Cytotoxicity (IC50, nM ± SD)
Experimental: as §1, §2

B16F1 = test: 72 hour cytotoxicity, ATP-Lite cell viability; type: cell-based; details: Mus musculus, B16-F1, B16F1, Melanoma, read-out: 72 Hour Cytotoxicity (IC50, nM ± SD)
Experimental: as §1, §2

MIAPaCa-2 = test: 72 hour cytotoxicity, ATP-Lite cell viability; type: cell-based; details: Homo sapiens, MIA PaCa-2, MIAPaCa-2, Pancreatic, read-out: 72 Hour Cytotoxicity (IC50, nM ± SD)
Experimental: as §1, §2

NCI/ADR-Res (MDR-1) = test: Multidrug resistant cell assay, cytotoxicity; details: 72 h, read-out: Various MDR Cell Line Cytotoxicity IC50
MCF-7/VP (MRP-1) = test: Multidrug resistant cell assay, cytotoxicity; details: Homo sapiens, MCF7-VP, 72 h, read-out: Various MDR Cell Line Cytotoxicity IC50
[5] = Swiss Webster, mouse, plasma, iv, 2.5 mg/kg, mice, Not Fasted
[6] = Swiss Webster, mouse, plasma, po, 60 mg/kg, mice, Fasted
[7] = Swiss Webster, mouse, plasma, po, 60 mg/kg, mice, Not Fasted
[8] = male cynomolgus monkey, fasted, single oral dose 20 mg/kg, plasma

COc1ccc(N(C)c2nc(CN)nc3ccccc23)cc1 [Compound 1]
pro-apoptotic activity, potency ([1]; multiple cancer types including pancreatic, breast, colorectal, non-small cell lung, melanoma, ovarian cancers and leukemia): potency at low nanomolar concentrations
induction of apoptosis versus ABC transporter expression ([1]; regardless of expression levels of MDR-1 (Pgp-1), MRP-1, BCRP-1): equipotent for induction of apoptosis
IC50 [2]: 6.1 ± 2.2 nM
AUC(0-inf) [3, 5]: 467 ng·h/mL
Cmax [3, 5]: 513 ng/mL and 1.7 µM
Tmax [3, 5]: 0.05 h
half-life ([3]; Swiss Webster, mouse, plasma, iv, 2.5 mg/kg, mice, Not Fasted, IV, 2.5 mg/kg, read-out: Plasma t½ (converted)): 6.2 h
half-life ([3]; Swiss Webster, mouse, plasma, po, 60 mg/kg, 60 mg/kg dose in mice, oral, read-out: half life (t1/2) (converted)): ~10 h
bioavailability ([3]; Swiss Webster, mouse, plasma, po, 60 mg/kg, 60 mg/kg dose in mice, read-out: oral bioavailability): ~100%
AUC(0-inf) [3, 6]: 12900 ng·h/mL
Cmax [3, 6]: 1090 ng/mL and 3.7 µM
Tmax [3, 6]: 1 h
bioavailability ([3]; Swiss Webster, mouse, plasma, po, 60 mg/kg, mice, Fasted, PO, 60 mg/kg, read-out: % F): 115%
half-life ([3]; Swiss Webster, mouse, plasma, po, 60 mg/kg, mice, Fasted, PO, 60 mg/kg, read-out: Plasma t½ (converted)): 18.3 h
AUC(0-inf) [3, 7]: 10700 ng·h/mL
Cmax [3, 7]: 1120 ng/mL and 3.8 µM
Tmax [3, 7]: 0.25 h
bioavailability ([3]; Swiss Webster, mouse, plasma, po, 60 mg/kg, mice, Not Fasted, PO, 60 mg/kg, read-out: % F): 96%
half-life ([3]; Swiss Webster, mouse, plasma, po, 60 mg/kg, mice, Not Fasted, PO, 60 mg/kg, read-out: Plasma t½ (converted)): 10.8 h
clearance ([3]; Swiss Webster, mouse, plasma, mice, Not Fasted, IV, 2.5 mg/kg, read-out: Plasma CL (converted)): 89.3 mL/min/kg
bioavailability after oral dosing ([3]; mice): almost completely bioavailable
oral dose proportionality to plasma Cmax ([3]; mice dosed orally up to at least 60 mg/kg): Dose proportional increases in Cmax
differences in pharmacokinetics between fed and fasted animals ([3]; mice, 60 mg/kg p.o.): No significant differences in pharmacokinetics
Plasma CL ([3]; mice, Fasted, PO, 60 mg/kg): 77.8 mL/min/kg
Plasma V ([3]; mice, Fasted, PO, 60 mg/kg): 123.424 L/kg
Plasma V ([3]; mice, Not Fasted, IV, 2.5 mg/kg): 47.759 L/kg
Plasma CL ([3]; mice, Not Fasted, PO, 60 mg/kg): 93.05 mL/min/kg
Plasma V ([3]; mice, Not Fasted, PO, 60 mg/kg): 86.914 L/kg
Compound 1 Plasma Concentration ([4]; Post Dose Sample Time 0): 3.08* ng/mL
Compound 1 Plasma Concentration ([4]; Post Dose Sample Time 0.25): 27.40 ng/mL
Compound 1 Plasma Concentration ([4]; Post Dose Sample Time 0.5): 64.15 ng/mL
Compound 1 Plasma Concentration ([4]; Post Dose Sample Time 1): 112.05 ng/mL
Compound 1 Plasma Concentration ([4]; Post Dose Sample Time 2): 166.01 ng/mL
Compound 1 Plasma Concentration ([4]; Post Dose Sample Time 6): 18.72 ng/mL
Compound 1 Plasma Concentration ([4]; Post Dose Sample Time 12): 3.91* ng/mL
oral bioavailability ([4]; male cynomolgus monkey dosed orally at 20 mg/kg): bioavailable
AUC(0-inf) [4, 8]: 536 ng·h/mL
CL/F [4, 8]: 622 mL/min/kg
Cmax [4, 8]: 166 ng/mL
Tlast [4, 8]: 12.0 h
Tmax [4, 8]: 2 h
half-life [4, 8]: 1.9 h
Vd/F ([4]; male cynomolgus monkey, fasted, single oral dose 20 mg/kg, plasma, read-out: Vz/F_obs): 102 L/kg
IC50 (MCF-7/MX (BCRP-1)): 9 nM
IC50 (MCF-7): 27 nM
IC50 (A549): 54 nM
IC50 (OVCAR-3): 29 ± 20.1 nM
IC50 (HT-29): 29 ± 2 nM
IC50 (HCT-116): 7.6 ± 1.9 nM
IC50 (B16F1): 37 nM
IC50 (MIAPaCa-2): 56 nM
IC50 (NCI/ADR-Res (MDR-1)): 13 nM
IC50 (MCF-7/VP (MRP-1)): 13 nM

From US20110224240A1 (Myrexis, Inc., priority 2010, published 2011)
